Test results: patent publication US20250206732A1, “COMPOUNDS AND METHODS FOR THE TARGETED DEGRADATION OF KRAS” (Arvinas Operations, Inc., priority 2022, published 2025)
One block for each compound: values may come before it.

Target: T1, AsPC-1 HiBiT-KRASG12D (Homo sapiens, UniProt P01116, G12D)
T1 construct: insert the HiBiT tag onto the N-terminus of one or more of the endogenous KRAS alleles; endogenous in cells; host or cells: AsPC-1 (ATCC CRL-1682), CRISPR-Cas9 knock-in clone, one tagged allele
Test: HiBiT degradation assay (G12D), AsPC-1 HiBiT-KRASG12D cells
Assay type: cell-based
Conditions: 24 hours treatment; for Dmax: ASPC1, AsPC-1 HiBiT-KRASG12D cells, maximum degradation observed; for DC50: AsPC-1 HiBiT-KRASG12D cells, HiBiT luminescence
From the text: Reagents. […] SW1573 cells are homozygous for the G12C mutation in KRAS, AsPC-1 cells are homozygous for the G12D mutation, and SW620 cells are homozygous for the G12V mutation. […] For degradation assays, 384 well plates were used. Alamar blue was purchased from ThermoFisher scientific (A50101) and used according to manufacturer instructions. The Nano-Glo® HiBiT Lytic Detection System and Nano-Glo® HiBiT Blotting System were purchased from Promega (#N3050 and #N2410) and used according to manufacturer instructions.
To create the AsPC-1 HiBiT-KRASG12D cell line, CRISPR-Cas9 was used to insert the HiBiT tag onto the N-terminus of one or more of the endogenous KRAS alleles. […] After knock-in of the tag, individual clones were isolated by single cell dilution and screened for HiBiT insertion by PCR. […] This clone was used in further studies.
HiBiT degradation assays (G12C and G12D). […] All assays were performed in triplicate. Cells were treated with compounds for 24 hours at 37° C. in an incubator containing 5% CO2. Following treatment, alamar blue was used to determine if any compounds led to a loss in cell viability after 24 hours. The 10× alamar blue reagent was added to a final concentration of 1× as recommended by the manufacturer and cells were returned to the incubator for 4 hours. Plates were then allowed to equilibrate to room temperature and fluorescence was measured using a Perkin-Elmer EnVision. After completion of the fluorescence read, the liquid from each well was removed and the cells were washed with PBS. The Nano-Glo® HiBiT detection reagent was prepared according to the manufacturer's instructions and added to each well after the PBS wash was removed. Following incubation at room temperature for 45 minutes, the luminescence was read using the ultra-sensitive luminescence aperture on the Envision instrument.
Data analysis. Fluorescence values from the alamar blue treatment were normalized to the DMSO-only control for each compound titration.

T1 sequence (P01116 1-188 isoform P01116-2 G12D): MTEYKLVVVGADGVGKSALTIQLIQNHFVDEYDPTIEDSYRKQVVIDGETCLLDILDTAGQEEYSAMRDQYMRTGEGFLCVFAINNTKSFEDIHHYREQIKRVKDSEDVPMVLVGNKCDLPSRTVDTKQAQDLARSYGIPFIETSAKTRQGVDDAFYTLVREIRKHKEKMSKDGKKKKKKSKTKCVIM

SMILES: CCc1cccc2cc(O)cc(-c3ncc4c(N5CC6CCC(C5)N6)nc(OC[C@]56CCCN5[C@@H](COC(=O)NCc5cc([C@H](C(=O)N7C[C@H](O)C[C@H]7C(=O)N[C@@H](C)c7ccc(-c8scnc8C)cc7)C(C)C)on5)CC6)nc4c3F)c12 [Compound 102, [(3R,7aR)-7a-{[(4-{3,8-diazabicyclo[3.2.1]octan-3-yl}-7-(8-ethyl-3-hydroxynaphthalen-1-yl)-8-fluoropyrido[4,3-d]pyrimidin-2-yl)oxy]methyl}-hexahydro-1H-pyrrolizin-3-yl]methyl N-({5-[(2R)-1-[(2S,4R)-4-hydroxy-2-{[(1S)-1-[4-(4-methyl-1,3-thiazol-5-yl)phenyl]ethyl]carbamoyl}pyrrolidin-1-yl]-3-methyl-1-oxobutan-2-yl]-1,2-oxazol-3-yl}methyl) carbamate]
Dmax: 80 to 100%
DC50: < 600 nM

SMILES: C#Cc1c(F)ccc2cccc(-c3ncc4c(N5CC6CCC(C5)N6)nc(OC[C@]56CCCN5[C@H](COC(=O)N5CCN(c7cc([C@H](C(=O)N8C[C@H](O)C[C@H]8C(=O)N[C@@H](C)c8ccc(-c9scnc9C)cc8)C(C)C)on7)CC5)CC6)nc4c3F)c12 [Compound 53, [(3S,7aR)-7a-{[(4-{3,8-diazabicyclo[3.2.1]octan-3-yl}-7-(8-ethynyl-7-fluoronaphthalen-1-yl)-8-fluoropyrido[4,3-d]pyrimidin-2-yl)oxy]methyl}-hexahydro-1H-pyrrolizin-3-yl]methyl 4-{5-[(2R)-1-[(2S,4R)-4-hydroxy-2-{[(1S)-1-[4-(4-methyl-1,3-thiazol-5-yl)phenyl]ethyl]carbamoyl}pyrrolidin-1-yl]-3-methyl-1-oxobutan-2-yl]-1,2-oxazol-3-yl}piperazine-1-carboxylate]
Dmax: 80 to 100%
DC50: < 600 nM

SMILES: CCc1cccc2cc(O)cc(-c3ncc4c(N5CC6CCC(C5)N6)nc(OC[C@@H]5CC[C@@H](COC(=O)N6CCN(c7cc([C@H](C(=O)N8C[C@H](O)C[C@H]8C(=O)N[C@@H](C)c8ccc(-c9scnc9C)cc8)C(C)C)on7)C[C@@H]6C)N5C)nc4c3F)c12 [Compound 261, [(2S,5S)-5-{[(4-{3,8-diazabicyclo[3.2.1]octan-3-yl}-7-(8-ethyl-3-hydroxynaphthalen-1-yl)-8-fluoropyrido[4,3-d]pyrimidin-2-yl)oxy]methyl}-1-methylpyrrolidin-2-yl]methyl (2S)-4-{5-[(2R)-1-[(2S,4R)-4-hydroxy-2-{[(1S)-1-[4-(4-methyl-1,3-thiazol-5-yl)phenyl]ethyl]carbamoyl}pyrrolidin-1-yl]-3-methyl-1-oxobutan-2-yl]-1,2-oxazol-3-yl}-2-methylpiperazine-1-carboxylate]
Dmax: 80 to 100%
DC50: < 600 nM

SMILES: CCc1cccc2cc(O)cc(-c3ncc4c(N5CC6CCC(C5)N6)nc(OC[C@@H]5CC[C@@H](COC(=O)N6CC(Oc7cc([C@H](C(=O)N8C[C@H](O)C[C@H]8C(=O)N[C@@H](C)c8ccc(-c9scnc9C)cc8)C(C)C)on7)C6)N5C)nc4c3F)c12 [Compound 294]
Dmax: 80 to 100%
DC50: < 600 nM

SMILES: CCc1cccc2cc(O)cc(-c3ncc4c(N5CC6CCC(C5)N6)nc(OCCN5CCC(F)(CN6CCN(c7cc([C@H](C(=O)N8C[C@H](O)C[C@H]8C(=O)N[C@@H](C)c8ccc(-c9scnc9C)cc8)C(C)C)on7)C[C@@H]6C)CC5)nc4c3F)c12 [Compound 214, (2S,4R)-1-[(2R)-2-{3-[(3S)-4-[(1-{2-[(4-{3,8-diazabicyclo[3.2.1]octan-3-yl}-7-(8-ethyl-3-hydroxynaphthalen-1-yl)-8-fluoropyrido[4,3-d]pyrimidin-2-yl)oxy]ethyl}-4-fluoropiperidin-4-yl)methyl]-3-methylpiperazin-1-yl]-1,2-oxazol-5-yl}-3-methylbutanoyl]-4-hydroxy-N-[(1S)-1-[4-(4-methyl-1,3-thiazol-5-yl)phenyl]ethyl]pyrrolidine-2-carboxamide]
Dmax: 80 to 100%
DC50: < 600 nM

SMILES: CCc1cccc2cc(O)cc(-c3ncc4c(N5CC6CCC(C5)N6)nc(OCCN5CC[C@H]6CN(c7cc([C@H](C(=O)N8C[C@H](O)C[C@H]8C(=O)N[C@@H](C)c8ccc(-c9scnc9C)cc8)C(C)C)on7)C[C@H]6C5)nc4c3F)c12 (relative stereo) [Compound 69, (2S,4R)-1-[(2R*)-2-{3-[(3aR**,7aR***)-5-{2-[(4-{3,8-diazabicyclo[3.2.1]octan-3-yl}-7-(8-ethyl-3-hydroxynaphthalen-1-yl)-8-fluoropyrido[4,3-d]pyrimidin-2-yl)oxy]ethyl}-octahydro-1H-pyrrolo[3,4-c]pyridin-2-yl]-1,2-oxazol-5-yl}-3-methylbutanoyl]-4-hydroxy-N-[(1S)-1-[4-(4-methyl-1,3-thiazol-5-yl)phenyl]ethyl]pyrrolidine-2-carboxamide]
Dmax: 80 to 100%
DC50: < 600 nM

SMILES: C#Cc1c(F)ccc2cccc(-c3ncc4c(N5CC6CCC(C5)N6)nc(OC[C@]56CCCN5[C@H](COc5cc([C@@H](C(=O)N7C[C@H](O)C[C@H]7C(=O)N[C@@H](C)c7ccc(-c8scnc8C)cc7)C(C)C)on5)CC6)nc4c3F)c12 [Compound 317, (2S,4R)-1-[(2R)-2-[3-[[(3S,8R)-8-[[4-(3,8-diazabicyclo[3.2.1]octan-3-yl)-7-(8-ethynyl-7-fluoro-1-naphthyl)-8-fluoro-pyrido[4,3-d]pyrimidin-2-yl]oxymethyl]-1,2,3,5,6,7-hexahydropyrrolizin-3-yl]methoxy]isoxazol-5-yl]-3-methyl-butanoyl]-4-hydroxy-N-[(1S)-1-[4-(4-methylthiazol-5-yl)phenyl]ethyl]pyrrolidine-2-carboxamide]
Dmax: 80 to 100%
DC50: < 600 nM

SMILES: CCc1cccc2cc(O)cc(-c3cc4nc(OC[C@]56CCCN5[C@H](COC(=O)N5CCN(c7cc(C(C(=O)N8C[C@H](O)C[C@H]8C(=O)N[C@@H](C)c8ccc(-c9scnc9C)cc8)C(C)C)on7)CC5)CC6)nc(N5CC6CCC(C5)N6)c4cn3)c12 (single isomer, unassigned) [Compound 266]
Dmax: 80 to 100%
DC50: < 600 nM

SMILES: CCc1cccc2cc(O)cc(-c3ncc4c(N5CC6CCC(C5)N6)nc(OCCN5CCC(F)(CN6CCN(c7cc([C@H](C(=O)N8C[C@H](O)C[C@H]8C(=O)N[C@@H](C)c8ccc(-c9scnc9C)cc8)C(C)C)on7)CC6)CC5)nc4c3F)c12 [Compound 262]
Dmax: 80 to 100%
DC50: < 600 nM

DC50: > 3000 nM
SMILES: CCc1cccc2cc(O)cc(-c3ncc4c(N5CC6CCC(C5)N6)nc(N5CC(CN6CCC(CC7CN(c8cc([C@@H](C(=O)N9C[C@H](O)C[C@H]9C(=O)N[C@@H](C)c9ccc(-c%10scnc%10C)cc9)C(C)C)on8)C7)CC6)C5)nc4c3F)c12 [Compound 189, (2S,4R)-1-[(2S)-2-(3-{3-[(1-{[1-(4-{3,8-diazabicyclo[3.2.1]octan-3-yl}-7-(8-ethyl-3-hydroxynaphthalen-1-yl)-8-fluoropyrido[4,3-d]pyrimidin-2-yl)azetidin-3-yl]methyl}piperidin-4-yl)methyl]azetidin-1-yl}-1,2-oxazol-5-yl)-3-methylbutanoyl]-4-hydroxy-N-[(1S)-1-[4-(4-methyl-1,3-thiazol-5-yl)phenyl]ethyl]pyrrolidine-2-carboxamide]

SMILES: C#Cc1c(F)ccc2cc(O)cc(-c3ncc4c(N5CC6CCC(C5)N6)nc(OCCN5CCC(CN6CCN(c7cc([C@@H](C(=O)N8C[C@H](O)C[C@H]8C(=O)N[C@@H](C)c8ccc(-c9ccnn9C)cc8)C(C)C)on7)CC6)CC5)nc4c3F)c12 [Compound 170, (2S,4R)-1-[(2S)-2-(3-{4-[(1-{2-[(4-{3,8-diazabicyclo[3.2.1]octan-3-yl}-7-(8-ethynyl-7-fluoro-3-hydroxynaphthalen-1-yl)-8-fluoropyrido[4,3-d]pyrimidin-2-yl)oxy]ethyl}piperidin-4-yl)methyl]piperazin-1-yl}-1,2-oxazol-5-yl)-3-methylbutanoyl]-4-hydroxy-N-[(1S)-1-[4-(1-methyl-1H-pyrazol-5-yl)phenyl]ethyl]pyrrolidine-2-carboxamide]
Dmax: 20 to 60%
DC50: 1000 to 3000 nM

SMILES: C#Cc1c(F)ccc2cc(O)cc(-c3ncc4c(N5CC6CCC(C5)N6)nc(OCCN5CCC(CC6CN(c7cc([C@@H](C(=O)N8C[C@H](O)C[C@H]8C(=O)N[C@@H](C)c8ccc(-c9ccnn9C)cc8)C(C)C)on7)C6)CC5)nc4c3F)c12 [Compound 160, (2S,4R)-1-[(2S)-2-(3-{3-[(1-{2-[(4-{3,8-diazabicyclo[3.2.1]octan-3-yl}-7-(8-ethynyl-7-fluoro-3-hydroxynaphthalen-1-yl)-8-fluoropyrido[4,3-d]pyrimidin-2-yl)oxy]ethyl}piperidin-4-yl)methyl]azetidin-1-yl}-1,2-oxazol-5-yl)-3-methylbutanoyl]-4-hydroxy-N-[(1S)-1-[4-(1-methyl-1H-pyrazol-5-yl)phenyl]ethyl]pyrrolidine-2-carboxamide]
Dmax: 20 to 60%
DC50: > 3000 nM
